Patent publication US20250130239A1, “PROTEIN DEGRADER” (University of Dundee, priority 2021, published 2025)
“And” between values parts separate entries of the source, which are not always exact repeats. Identical values can stand only once.

What was measured:
[1] = system: BRD3, BRD4 or any other endogenous protein; assay: TMT labeling mass spectrometry proteomics, off-targets; type: cell-based, human; conditions: 1 μM, 2 h; >6,621 proteins quantified
Description: Sample processing, TMT labelling and fractionation. CRISPR modified BromoTag-Brd2 HEK293 cells were seeded 5×10^6 cells on a […] 24 h before treatment. Cells were treated with either DMSO, 1 μM AGB1 or 1 μM cis-AGB1. 2 h post-treatment, the cells were washed twice with PBS. Cells were lysed in 150 μL of 100 mM TEAB, 5% (w/v) SDS. The lysate was sonicated for 10 s and then centrifuged at 15,000 g for 5 min with the supernatant collected post-centrifugation. Samples were then quantified using a micro-BCA protein assay kit (Thermo Fisher Scientific); 300 μg of each sample were then reduced, alkylated and then digested using Strap mini protocol (Protifi) protocol as described by the manufacturer (protifi) with some modification. Samples were double digested with trypsin (1:40) first overnight then for another 6 hrs with the same ratio (1:40) in 50 mM TEAB buffer. Peptides were quantified using a quantitative fluorometric peptide assay (Thermo Fisher Scientific). The samples (90 μg each) were labelled with a TMT 10-plex Isobaric Label Reagent set (Thermo Fisher Scientific) as per the manufacturer's instructions. After labelling, samples were checked for labelling efficiency, then mixed, desalted, and dried in a speed-vac at 30° C. Samples were re-dissolved in 200 μl ammonium formate (10 mM, pH 9.5) and peptides were fractionated using High pH RP Chromatography. […]

BromoTag-Brd2 = biological target: T1, BromoTag-Brd2 (Homo sapiens, UniProt O60885+P40337, L387A); assay: Dose-response degradation assay (western blot, 6 h) in heterozygous BromoTag-Brd2 HEK293 cells; type: cell-based
T1 construct: comprising residues 368-440 of human Brd4; Brd2 (endogenous protein, fusion partner in the same polypeptide); eGFP-P2A (upstream marker in the knock-in cassette) (N, cleaved yes); expressed in transfected cells; host or cells: HEK293, heterozygous CRISPR knock-in at the endogenous BRD2 locus
Description: Dose-response Degradation Assays. All dose-response degradation assays were performed on the genotype verified heterozygous BromoTag-Brd2 HEK293 cell line. Heterozygous BromoTag-Brd2 HEK293 cells were plated at a density of 5×10^5 cells per well of a six healthy plate a day before initiation of the titration experiment. PROTAC compounds were dissolved in DMSO at a concentration of 10 mM, from these stock concentrations, PROTAC compounds were diluted to appropriate concentrations using DMSO in the range of 10 μM-1 nM. […] Control compounds such as MZ1, cis-MZ1 were similarly dissolved in DMSO to the appropriate concentration. […] Cells were washed twice with PBS before being harvested.
Western Blotting. […] The membranes were blocked for 1 h prior to incubation with the primary antibodies using 5% Milk TBST. […] Following overnight incubation with the primary antibodies at 4° C., the membranes were incubated with secondary antibodies (Anti-rabbit, Abcam AB216773, 1:5000 or anti-mouse, Abcam AB216774, 1:5000) and hFAB™ Rhodamine Anti-Tubulin Antibody (Biorad, 12004165, 1:10000) for one h and then imaged with a Bio-Rad imager (LI-COR Biosciences). All western blots were analysed for band intensities using Image Lab from Bio-Rad (LI-COR, Biosciences). The data extracted from these blots were then plotted and analysed using Prism (v. 8.2.0, GraphPad).

T1 sequence (P40337 whole entry, other chains not shown, the tested form may be a part): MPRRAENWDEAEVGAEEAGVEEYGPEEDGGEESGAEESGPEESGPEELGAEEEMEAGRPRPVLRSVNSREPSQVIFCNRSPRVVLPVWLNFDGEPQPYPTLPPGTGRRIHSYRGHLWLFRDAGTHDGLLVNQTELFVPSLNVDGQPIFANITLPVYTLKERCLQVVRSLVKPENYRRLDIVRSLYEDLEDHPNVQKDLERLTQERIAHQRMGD

CC[C@@H](C(=O)OCCOCCOCCOCC(=O)N[C@H](C(=O)N1C[C@H](O)C[C@H]1C(=O)NCc1ccc(-c2scnc2C)cc1)C(C)(C)C)[C@@H]1N=C(c2ccc(Cl)cc2)c2c(sc(C)c2C)-n2c(C)nnc21 (single isomer, unassigned) [AGB1 (46)]
depletion of BRD3, BRD4 or any other endogenous protein (proteomics) [1]: no detectable off-target effects | DC50 (BromoTag-Brd2; 6 h, range over the two antibodies, listed as 46): 13 to 15 nM and < 15 nM | pDC50 (BromoTag-Brd2; Ab: Brd4^BD2 L387A, single stereoisomers, 8-point 10 μM-1 nM, 6 h, mean (±S.E.) of two repeats): 7.8 ± 0.2 | pDC50 (BromoTag-Brd2; Ab: BromoTag-Brd2, single stereoisomers, 8-point 10 μM-1 nM, 6 h, mean (±S.E.) of two repeats): 7.9 ± 0.1 | pDC50 (BromoTag-Brd2; BromoTag'ed BRD2 (P25440), N-term tag, Table 6): 7.8 | Dmax (BromoTag-Brd2; HEK293, Ab: Brd4^BD2 L387A, single stereoisomers, 6 h): 99%
